Source: patent US11396517B1, “Exo-aza spiro inhibitors of menin-MLL interaction” (Janssen Pharmaceutica NV, priority 2017, dated 2022)
Where two headings read alike, the source gives them in different places.

What was measured:
menin = target: T1, menin (Homo sapiens, UniProt O00255, T541A); experiment: Menin/MLL homogenous time-resolved fluorescence (HTRF) assay; type: binding; conditions: location 2; read-out: (2) location 2 Menin HTRF assay (IC50 (nM))
T1 construct: Menin (a.a. 1-610-6×his tag)
T1 sequence (O00255 with tags, fused parts or gaps T541A): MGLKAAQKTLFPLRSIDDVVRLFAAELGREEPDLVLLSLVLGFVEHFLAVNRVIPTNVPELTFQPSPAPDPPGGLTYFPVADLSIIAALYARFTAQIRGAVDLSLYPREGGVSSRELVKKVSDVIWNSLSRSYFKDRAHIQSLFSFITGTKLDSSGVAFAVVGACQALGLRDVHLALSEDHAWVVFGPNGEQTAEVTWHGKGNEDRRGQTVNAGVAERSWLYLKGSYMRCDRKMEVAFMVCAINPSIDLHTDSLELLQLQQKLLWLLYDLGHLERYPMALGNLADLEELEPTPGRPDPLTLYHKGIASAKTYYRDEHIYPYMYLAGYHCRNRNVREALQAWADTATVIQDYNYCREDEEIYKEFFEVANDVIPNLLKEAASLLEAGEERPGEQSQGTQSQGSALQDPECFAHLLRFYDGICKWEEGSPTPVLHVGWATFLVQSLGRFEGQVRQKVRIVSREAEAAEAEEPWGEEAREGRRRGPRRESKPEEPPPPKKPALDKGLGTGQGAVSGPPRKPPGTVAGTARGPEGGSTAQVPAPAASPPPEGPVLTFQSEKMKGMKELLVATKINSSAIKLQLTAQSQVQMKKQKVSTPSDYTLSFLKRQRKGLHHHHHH
In short: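 Displacement of 75 nM FITC-MBM1 from terbium-cryptate-labeled His-tagged menin 1-610 ([…]) was read as the 520/490 nm HTRF ratio. Compound (11-point, 3-fold series) got 5 min with menin before peptide, then 15 min at ambient; 0.5% DMSO, Tris pH 7.5.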

MV-4-11 = experiment: Proliferation assay B (spheroid assay) MV-4-11; type: cell-based, human; conditions: MV-4-11 cells, confluence at day 8, absolute IC50, read-out: (3b) Spheroid assay MV-4--11 (IC50(μM)) Assay B
Method: 3b) Proliferation Assay B
The anti-proliferative effect of menin/MLL protein/protein interaction inhibitor test compounds was assessed in human leukemia cell lines. The cell lines MV-4-11 and MOLM14 harbor MILL translocations and express the MILL fusion proteins MLL-AF4 and MLL-AF9, respectively, as well as the wildtype protein from the second allele. […] K562 was used as a control cell line containing two MLL wildtype alleles in order to exclude compounds that display general cytotoxic effects.
MV-4-11 and MOLM14 were cultured in RPMI-1640 (Sigma Aldrich) supplemented with 10% fetal bovine serum (HyClone), 2 mM L-glutamine (Sigma Aldrich) and 50 μg/ml gentamycin (Gibco). K562 were propagated in RPMI-1640 (Sigma Aldrich) supplemented with 20% fetal bovine serum (HyClone), 2 mM L-glutamine (Sigma Aldrich) and 50 μg/ml gentamycin (Gibco).
In order to assess the anti-proliferative effects, 1,500 MV-4-11, 300 MOLM14 cells or 750 K562 cells were seeded in 200 μl media per well in 96-well round bottom, ultra-low attachment plates (Costar, catalogue number 7007). Cell seeding numbers were chosen based on growth curves to ensure linear growth throughout the experiment. Test compounds were added at different concentrations and the DMSO content was normalized to 0.3%. Cells were incubated for 8 d at 37° C. and 5% CO2. Spheroid like growth was measured in real-time by live-cell imaging (IncuCyteZOOM, Essenbio, 4× objective) acquiring images at day 8. Confluence (%) as a measure of spheroid size was determined using an integrated analysis tool.
In order to determine the effect of the test compounds over time, the confluence in each well as a measure of spheroid size, was calculated. Confluence […] at the beginning of the experiment (t=0) was used as baseline for the calculation.
Absolute IC50 values were calculated as percent change in confluence as follows:
LC=Low Control: cells treated with 1 μM of the cytotoxic agent staurosporin
HC=High Control: Mean confluence (%) (DMSO treated cells) % Effect=100−(100*(Sample−LC)/(HC−LC))
To determine the IC50 a curve is fitted to the plot of % Effect vs Log 10 compound concentration using a sigmoidal fit with a variable slope and fixing the maximum to 100% and the minimum to 0%.

MOLM14 = experiment: Proliferation assay B (spheroid assay) MOLM14; type: cell-based, human; conditions: MOLM14 cells, confluence at day 8, absolute IC50, read-out: (3b) Spheroid assay MOLM14 (IC50(μM)) Assay B
In short: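 IC50 derived from % effect on day-8 imaged confluence, scaled between DMSO-treated cells (high) and 1 μM staurosporine (low), using a variable-slope fit constrained 0-100%. Cells seeded as spheroids in ultra-low-attachment plates and exposed to compound for 8 days, 0.3% DMSO.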

SMILES	IC50 (menin)	IC50 (MV-4-11; Homo sapiens, MV4-11, 192 h)	IC50 (MOLM14; Homo sapiens, MOLM-14, 192 h)	IC50 (MV-4-11)	IC50 (MOLM14)
CN1CCC(c2cc(NC3CC4(CCN(c5ncnc6sc(CC(F)(F)F)cc56)C4)C3)ccc2C#N)CC1 (racemic) [Compound 78]	2.9 nM	0.33 µM	0.48 µM	–	–
Nc1nc(N2CCC3(CC(Nc4ccc5[nH]c(=O)oc5c4)C3)C2)c2cc(CC(F)(F)F)sc2n1 (mixture of isomers) [Compound 384]	32.6 nM	> 3.75 µM	1.49 µM	–	–
N#Cc1ccccc1NC1CC2(CCN(c3ncnc4sc(CC(F)(F)F)cc34)C2)C1 (mixture of isomers) [Compound 162]	90 nM	2.84 µM	> 3.75 µM	–	–
CNC(=O)c1ccc(NC2CC3(CCN(c4ncnc5sc(CC(F)(F)F)cc45)C3)C2)nc1 (stereo not drawn) [Compound 70]	2.7 nM	0.3 µM	1.08 µM	–	–
CN1CCC(Oc2cc(NC3CC4(CCN(c5ncnc6sc(CC(F)(F)F)cc56)C4)C3)ccc2C#N)CC1 (stereo not drawn) [Compound 81]	6.8 nM	0.43 µM	0.65 µM	–	–
O=c1[nH]c2cc(NC3CC4(CCN(c5ncnc6sc(CC(F)(F)F)cc56)C4)C3)ccc2o1 (mixture of isomers) [Compound 308]	5.6 nM	2.64 µM	> 3.75 µM	–	–
Cn1nnc2ccc(NC3CC4(CCN(c5ncnc6sc(CC(F)(F)F)cc56)C4)C3)cc21 (mixture of isomers) [Compound 216]	38 nM	> 3.75 µM	> 3.75 µM	–	–
NC(=O)Cn1c(=O)[nH]c2cc(CNC3CCC4(C3)CN(c3ncnc5sc(CC(F)(F)F)cc35)C4)ccc21 (stereo not drawn) [Compound 53, 2-(2-oxo-5-(((2-(6-(2,2,2-trifluoroethyl)thieno[2,3-d]-pyrimidin-4-yl)-2-azaspiro[3.4]octan-6-yl)amino)methyl)-2,3-dihydro-1H-benzo[d]-imidazol-1-yl)acetamide]	8.7 nM	> 3.75 µM	> 3.75 µM	–	–
CNC(=O)c1ccc(NC2CC3(CCN(c4ncnc5sc(CC(F)(F)F)cc45)C3)C2)c(F)c1F (single isomer, unassigned) [Compound 226]	7.8 nM	0.43 µM	2.83 µM	–	–
Fc1ccc(NC2CC3(CCN(c4ncnc5sc(CC(F)(F)F)cc45)C3)C2)cc1 (mixture of isomers) [Compound 158]	72.2 nM	2.41 µM	1.98 µM	–	–
CNC(=O)c1ccc(NC2CCC3(C2)CN(c2ncnc4sc(CC(F)(F)F)cc24)C3)cc1 (stereo not drawn) [Compound 96]	43.4 nM	1.02 µM	1.09 µM	–	–
O=c1[nH]c2cc(N[C@@H]3CCC4(C3)CN(c3ncnc5sc(CC(F)(F)F)cc35)C4)ccc2o1 (single isomer, unassigned) [Compound 286]	23.7 nM	2.48 µM	> 3.75 µM	–	–
Cc1nc(N2CCC3(CC(Nc4ccc(CC#N)cc4)C3)C2)c2cc(CC(F)(F)F)sc2n1 (mixture of isomers) [Compound 404]	16.4 nM	> 3.75 µM	> 3.75 µM	–	–
N#CCc1ccc(N[C@@H]2CC[C@@]3(CCN(c4ncnc5sc(CC(F)(F)F)cc45)C3)C2)cc1 (stereo in doubt) [Compound 144]	9.3 nM	1.4 µM	2.77 µM	–	–
N#CC1(c2ccc(NC3CCC4(CCN(c5ncnc6sc(CC(F)(F)F)cc56)C4)C3)cc2)CC1 (stereo not drawn) [Compound 131]	49.1 nM	3.3 µM	> 3.75 µM	–	–
CNc1nc(N2CC3(CC[C@H](NCc4cccc(-c5cc[nH]n5)c4)C3)C2)c2cc(CC(F)(F)F)sc2n1 (stereo in doubt) [Compound 122]	49.3 nM	0.44 µM	1.21 µM	–	–
CS(=O)(=O)N1CCC(CNC(=O)c2ccc(NC3CC4(CCN(c5ncnc6sc(CC(F)(F)F)cc56)C4)C3)cc2)CC1 (mixture of isomers) [Compound 177]	16.2 nM	1.02 µM	1.22 µM	–	–
Cc1nc(N2CCC3(CC(NCc4ccccc4)C3)C2)c2cc(CC(F)(F)F)sc2n1 (single isomer, unassigned) [Compound 262]	15.1 nM	0.69 µM	0.81 µM	–	–
N#CCc1ccc(NC2CCC3(CCN(c4ncnc5sc(CC(F)(F)F)cc45)C3)C2)cc1F (stereo not drawn) [Compound 129]	34.3 nM	3.81 µM	> 3.75 µM	–	–
CC(C)(C#N)c1ccc(NC2CCC3(CCN(c4ncnc5sc(CC(F)(F)F)cc45)C3)C2)cc1 (stereo not drawn) [Compound 130]	67.1 nM	> 3.75 µM	> 3.75 µM	–	–

The next lines start with the values.

IC50 (menin)	IC50 (MV-4-11; Homo sapiens, MV4-11, 192 h)	IC50 (MOLM14; Homo sapiens, MOLM-14, 192 h)	IC50 (MV-4-11)	IC50 (MOLM14)	SMILES
2290 nM	> 3.75 µM	> 3.75 µM	–	–	O=C(c1ccc(NC2CC3(CCN(c4ncnc5sc(CC(F)(F)F)cc45)C3)C2)cc1)N1CC2(COC2)C1 (single isomer, unassigned) [Compound 413]
5.5 nM	0.62 µM	1.91 µM	–	–	Cn1c(=O)[nH]c2ccc(CN[C@@H]3CCC4(C3)CN(c3ncnc5sc(CC(F)(F)F)cc35)C4)cc21 (stereo in doubt) [Compound 110]
32.7 nM	0.98 µM	1.6 µM	–	–	CNc1nc(N2CC3(CC[C@@H](NCc4cccc(-c5cc[nH]n5)c4)C3)C2)c2cc(CC(F)(F)F)sc2n1 (stereo in doubt) [Compound 121]
42.7 nM	> 3.75 µM	> 3.75 µM	–	–	Cc1cc2ccc(NC3CCC4(C3)CN(c3ncnc5sc(CC(F)(F)F)cc35)C4)cc2[nH]1 (stereo not drawn) [Compound 289]
61.7 nM	–	–	> 3.75 µM	> 3.75 µM	CS(=O)(=O)NC(=O)c1ccc(NC2CC3(CCN(c4ncnc5sc(CC(F)(F)F)cc45)C3)C2)cc1 (single isomer, unassigned) [Compound 361]
171 nM	> 3.75 µM	> 3.75 µM	–	–	CNC(=O)c1ccc(NC2CC3(CCN(c4ncnc5sc(CC(F)(F)F)cc45)C3)C2)cc1CCCN1CCN(S(C)(=O)=O)CC1 (mixture of isomers) [Compound 251]
45.3 nM	2.07 µM	2.9 µM	–	–	N#CCc1ccc(N[C@H]2CC[C@]3(CCN(c4ncnc5sc(CC(F)(F)F)cc45)C3)C2)cc1 (stereo in doubt) [Compound 147]
26.4 nM	> 3.75 µM	> 3.75 µM	–	–	CNc1nc(N2CCC3(CC(Nc4ccc5[nH]c(=O)oc5c4)C3)C2)c2cc(CC(F)(F)F)sc2n1 (mixture of isomers) [Compound 399]
34.1 nM	> 3.75 µM	> 3.75 µM	–	–	CNC(=O)c1ccc(NC2CC3(CCN(c4ncnc5sc(CC(F)(F)F)cc45)C3)C2)cc1C#N (mixture of isomers) [Compound 422]
836 nM	> 3.75 µM	> 3.75 µM	–	–	CS(=O)(=O)NC(=O)c1ccc(NC2CC3(CCN(c4ncnc5sc(CC(F)(F)F)cc45)C3)C2)cc1 (single isomer, unassigned) [Compound 362]
